Results from patent publication US20230390315A1, “COMPOSITIONS AND METHODS FOR TREATING ISCHEMIC CONDITIONS” (The Regents of the University of California, priority 2020, published 2023).

Columns and labels:
[1] = tested on: bovine retinal microvascular endothelial cells (BREC); test: BREC proliferation assay; assay type: cell-based
Experimental: Proliferation assays with BCECs and BRECs were performed. Log-phase growing BCECs or BRECs (passage <10) were trypsinized, re-suspended and seeded in 96-well plates (no coating) in low-glucose DMEM supplemented with 10% bovine calf serum, 2 mM glutamine, and antibiotics (growth medium), at a density of 1200-1500 cells per well in 200 μl volume. All reagents were added at the indicated final concentrations. After 3-6 days, cells were incubated with AlamarBlue for 4 hrs. Fluorescence was measured at 530 nm excitation wavelength and 590 nm emission wavelength. The experiments were repeated at least three times. To create a hypoxic condition, cells were placed in a hypoxia incubator with a mixture of gas consisting of 1% 02, 5% CO2 and 94% Nz. On each 96-well plate, untreated and VEGF-treated (10/ng/ml) wells were included to monitor plate-to-plate variations. 20% methanol or 0.05% DMSO served as negative controls. 0.05% DMSO served as negative controls when Cas was tested in these cells. Human RMVECs and human adult DMVECs were split into Gelatin-coated 96 wells (2000 cells per well) in low glucose DMEM containing 10% FBS. 1200 cells/well was set up for proliferation assay in low glucose media containing FBS. Data was collected at day 4 or 5. HUVEC (p7-10) were grown on gelatin-coated plate until it reached 70-80% confluency.

[2] = tested on: β-Glucosidase; test: β-glucosidase activity assay; assay type: biochemical, almond; conditions: up to 2 mM
Experimental: a-mannosidase activity was measured using substrate p-nitrophenyl α-mannopyranoside (1 mM). Enzyme from Jack Bean ([…]) (final concentration of 0.077 U) was incubated at 37° C. in a final volume of 50 μl of 50 mM potassium phosphate buffer, pH 7.5. α-glucosidase was assayed with substrate p-nitrophenyl α-glucoside (7 mM). Enzyme from Saccharomyces cerevisiae-type 1 (Sigma, G5003) (final concentration of 0.1 U) was incubated at 37° C. in a final volume of 50 μl of PBS, pH 7.5. β-Glucosidase was assayed with substrate 4-nitrophenyl β-D-glucopyranoside (Roche). Enzyme from almond (Sigma, G0395) (final concentration of 0.002 U) was incubated at 37° C. in a final volume of 50 μl of PBS, pH 7.5 containing 1% SDS. The incubation was stopped by addition of an equal volume of acid-based stop solution (R&D systems, 895032). Enzymatic activity was measured at 405 nm. α-glucosidase from Saccharomyces cerevisiae type I ([…]) with p-nitrophenyl α-D-glucopyranoside (Sigma, N1377) as the substrate.

[3] = tested on: bFGFR1 or β1 integrin; test: Western blot of protein molecular mass in non-ECs; assay type: cell-based; conditions: 400 μM and 2 mM
Experimental: Cells were allowed to reach 80% confluency in 12-well plates. […] At various time points, plates were taken out of the incubator and kept on ice. Cell monolayers were first washed once with ice-cold PBS before lysis with 250 μl of Pierce RIPA buffer (ThermoFisher Scientific, Rockford, IL) or use 50 mM Tris-HCl (pH 7.6), 150 mM NaCl, 10% Glycerol, 1% NP-40 containing protease/Phosphatase inhibitor cocktail (100×) (Cell signaling, #5872). Lysates were collected and mixed with 4×Bolt LDS Sample Buffer (Novex, Carlsbad, CA) in the presence of Halt protease inhibitors and phosphatase inhibitor cocktail (ThermoFisher scientific, #NP0007). The samples were subjected to SDS-PAGE (Bolt 4-12% Bis-Tris Plus, Invitrogen) using Bolt MES SDS running buffer or NuPAGE 3-8% Tris-Acetate gel using Tris-Acetate SDS running buffer (Novex). HUVECs (passage 6-8) were plated in EBM-2 basal medium (Lonza) with 0.2% FBS. […] Equal amounts of protein lysates were analyzed by SDS-PAGE and blotted with the indicated antibodies. Proteins were transferred using Tris-Glycine buffer with 20% Methanol (Proteonomics grade) (Apex BioResearch Products). Membranes were first incubated with 5% milk in TBST, pH 7.6 (TEKnova, Hollister, CA), followed by blotting with primary and secondary antibodies. […]

[4] = tested on: HUVEC; test: HUVEC migration assay; assay type: cell-based, human; conditions: 40 uM ManN alone
Experimental: HUVECs (passage 6-8) were cultured and serum-starved as described in “Western Blots”. Ten thousand cells in 150 μl of EBM-2 medium were then added to the upper chamber of 8 μm pore size cell culture inserts (Falcon) coated with 0.1% gelatin. The lower compartment was filled with 600 μl EBM-2 medium containing various agents. The plates were incubated at 37° C. to allow migration. After 4 hrs, cells were fixed with 4% PFA for 20 min and then stained with crystal violet (Sigma-Aldrich) for 20 min at RT. Migrated cells on the bottom side of the insert membrane were quantified by counting whole area of the insert at 40× magnification. The experiments were carried out in triplicate and repeated three times. BCEC migration was set up similarly, except that wells were coated with FN, cells were suspended in 1% serum media and migration time was 18-24 hrs.

[5] = tested on: human keratinocytes; test: Human keratinocyte proliferation assay; assay type: cell-based
Experimental: Proliferation assays with fibroblasts were done in low-glucose DMEM containing 1% FBS, with or without 10 ng/ml bFGF, or 100 ng/ml human EGF and the assay was ended at day 3. ARPE-19 cells were gently lifted with 0.025% trypsin and plated in RtEGM media (Clonetics) containing 2% FBS, L-glutamine, human bFGF and GA-1000. Once cells were attached to plates, serum-free RtEGM media was used to maintain the cultures. For proliferation assays, 1500 human RPE cells were plated into 96-well plates in low-glucose DMEM containing 1% FBS. A673, U87MG, Calu6 and AML12 cells were grown until confluent and were then harvested and re-suspended in appropriate assay media. For proliferation assays, cells were plated at the density of 1000-2000 cells/well in low-glucose DMEM containing 5% FBS or otherwise stated. Bovine pituitary cells (pituitary folliculostellate cells) were isolated as previously described. For proliferation assays with human epidermal keratinocytes, human DMVECs and human dermal fibroblast cells, 1000 cells/well were plated in low-glucose DMEM containing 1% FBS with or without various growth factors. The assay was ended at day 3 for bovine pituitary cells and at day 4 for all the other cell types. […] Four days later, tumor cell growth was measured by the MTS assay (Promega, Madison, WI), a colorimetric assay that measures metabolic activity of viable cells. […]

N[C@H](C=O)[C@@H](O)[C@H](O)[C@H](O)CO [ManN, 2-Amino-2-deoxy-D-mannose]
additive effects in promoting BREC proliferation [1]: Additive effects
effect on β-glucosidase [2]: No effect
molecular mass change of bFGFR1 or β1 integrin in non-ECs [3]: induce molecular mass change
HUVEC migration [4]: stimulation of migration
cellular toxicity, sensitivity among cell types ([5]; 5 mM level of ManN): least sensitive
proliferation of human keratinocytes ([5]; alone or in combination with growth factors): no increases in proliferation
